Blank lines part the entries; values can stand above or below the molecule they belong to. Where no end group is shown, it is not given here. The star is where a group is joined. Biotin = O=C1N[C@H]2[C@H](CS[C@H]2CCCCC(=O)*)N1
Legend:
[1] = Phage ELISA, bovine polished enamel-binding assay; conditions: over 10^10 pfu phage, A450
Method: A total of 11 selected phage candidates (Example 3) was used in a phage ELISA experiment. Purified phage lysates were used for binding to the enamel blocks using an anti-M13 phage antibody conjugated to horseradish-peroxidase, followed by the addition of chromogenic agent TMB. The plates were read at A450 nm.
For each phage candidate to be tested, the polished and unpolished enamel blocks were incubated for 1 h at room temperature with 200 μL of blocking buffer, consisting of 2% non-fat dry milk (Schleicher & Schuell, Inc.) in TBS. […] The tube was rinsed 6 times with wash buffer consisting of TBST-0.05%. The wells were filled with 200 μL of TBST-0.5% containing 1 mg/mL BSA and then 10 μL (over 10^10 pfu) of purified phage stock was added. The samples were incubated at room temperature for 60 min with slow shaking. The non-binding phage was removed by washing 6 times with TBST-0.5%. […] The conjugate solution was removed and was washed 6 times with TBST-0.5%. […] BoEn P means bovine polished enamel and BoEn means bovine enamel.

Pellicle Surface = conditions: read-out: MB50; biotinylated peptide, 30 min in vivo pellicle on enamel, from Scatchard plots
Method: The pellicle coated enamel substrates were removed from the wax backing and placed in well plates with the pellicle surface exposed as in Example 5. […] The blocking buffer was removed by aspirating the liquid out of each well. […] The samples were incubated for 30 min with slow shaking at 37° C. The non-binding peptide was removed by washing 6 times with PBST. […] The conjugate solution was removed and was washed 4 times with PBST.
Each enamel substrate was removed from the well and washed again in a 15-mL test tube with 10 mL of PBST. Each enamel substrate was then mounted in a clean well plate with only the enamel surface exposed.

[2] = tested on: pellicle coated enamel substrates; conditions: 20 μM biotinylated peptide, streptavidin-HRP, normalized to DenP03, three replicates
Method: A total of 20 synthetic peptides were manufactured using sequences obtained from Table 6. Peptides were obtained from SynBioSci Corp. (Livermore, Calif.) and included an additional sequence (SSRP; SEQ ID NO: 118) at the N-terminus and biotin labeled lysine at the C-terminus.
Enamel substrates were cut into approximately 7 mm squares and mounted on wax mounting for incubation in the mouth for 30 min to form a pellicle coated surface. The pellicle coated enamel substrates were removed from the wax backing and placed in well plates with the pellicle surface exposed as in Example 5. Each pellicle coated substrate was incubated for 1 h at room temperature (˜22° C.) with 1 mL of blocking buffer, consisting of 1 mg/mL BSA in PBST (Pierce BUPH™ #28372 with 0.1% TWEEN® 20). The blocking buffer was removed by aspirating the liquid out of each well. The tube was rinsed 2 times with wash buffer consisting of PBST. The wells were filled with 500 μL of 20 μM peptide solution which was prepared by diluting in blocking buffer. The samples were incubated for 30 min with slow shaking at 37° C. The non-binding peptide was removed by washing 6 times with PBST. Then, 500 μL of horseradish peroxidase/streptavidin conjugate (Pierce #22127), diluted 1:2000 in PBST, was added and incubated for 1 h at room temperature (˜22° C.). The conjugate solution was removed and was washed 4 times with PBST.
Each enamel substrate was removed from the well and washed again in a 15-mL test tube with 10 mL of PBST. Each enamel substrate was then mounted in a clean well plate with only the enamel surface exposed. A 1:1 solution of TMB substrate and H2O2 (200 μL) was added to each well and the color was allowed to develop for between 10 to 20 min, typically for 15 min, at room temperature (˜22° C.). Then, 100 μL of solution from each well was transferred to a 96 well reading plate containing stop solution (100 μL of 2 M H2SO4) in each well. The A450 was measured using a microplate spectrophotometer (Molecular Devices, Sunnyvale, Calif.). […] Each sequence was tested with three replicate enamel coated pellicle substrates.

[3] = Peptide-mediated adhesion of streptavidin-coated gold particles on enamel, SEM; format: binding, bovine; conditions: 20 μM peptide, then 50 nm streptavidin gold nanoparticles; SEM at 10000X
Method: Bovine enamel incisors were obtained from SE Dental (Baton Rouge, La.). Teeth are sectioned and cut into enamel slabs approx. 5 mm on each side using a DREMEL® saw with a diamond blade. The enamel blocks are cleaned and place each in a plastic microcentrifuge tube.
Each enamel block was incubated for 45 min in phosphate buffered saline with 0.1% TWEEN® 20 (PBST) and 1 mg/mL bovine serum albumin (BSA) at room temperature (22° C.). All blocks were rinsed with PBST twice while vortexing in the microcentrifuge tube. The peptides were first diluted to 10 mM in water and then a working concentration of 20 μM was prepared in PBST with 1 mg/mL BSA. Each sample was exposed to the peptide solution or a no peptide buffer control for 30 min at room temperature. The samples were slowly rotated during incubation. The enamel blocks were removed from the peptide solution and washed four times with PBST with vortexing.
50 nm gold nanoparticles functionalized with streptavidin were obtained from Nanocs Inc (New York, N.Y.) and diluted to 0.006% wt in PBST with 1 mg/mL BSA. All enamel samples were then exposed to the gold nanoparticle solution for 1 hr at room temperature with slow rotation. […]
Each enamel sample was examined with Electron Microscopy. […] Particles were counted per micrograph and the density of particle coverage was compared (Table 14).

[4] = tested on: pellicle-coated enamel substrates; assay: Tooth whitening with sequentially applied peptide and silica-coated TiO2, colour measurement; set-up: species or system bovine; conditions: 20 μM peptide 30 min, then 1% silica-coated TiO2 30 min; three replicate teeth
Method: Silica-coated rutile titanium dioxide (Luce II WW) was obtained from US Cosmetics Corp. (Dayville, Conn.). A 12 wt % solution of the pigment was prepared with Millipore water. The solution was dispersed by horn sonication using a Branson Sonifier 150 at 10 W. The solution was sonicated in an ice bath for 6 min total, with 2 min sonication intervals. A working solution of 1 wt % in 10 mM sodium phosphate buffer at pH7.2 was made for application to peptide coated enamel. A 0.01% solution of this dispersion diluted in the same buffer was measured on a Malvern Zetasizer Nano dynamic light scattering instrument.
Bovine enamel incisors were obtained from SE Dental (Baton Rouge, La.). Teeth were sectioned and cut into enamel slabs approx. 7 mm on each side using a DREMEL® saw with a diamond blade. The enamel slabs were cleaned and lightly polished to remove surface debris. The enamel was pretreated with a mixture of coffee and tea in order to stain to a color similar to human stained teeth. Each enamel block was then mounted on wax mounting and sterilized with ethylene oxide. […] The mounted enamel blocks were brushed with a toothbrush and a 1:2 dilution of COLGATE® MAXFRESH® toothpaste (Colgate-Palmolive Co., New York, N.Y.) and then reinserted into the mouth for 1 minute. […] Each pellicle coated enamel slab was measured for color using a Konica-Minolta 2600d integrating sphere spectrophotometer.
Peptides listed in Table 15 were dissolved into pH 7.2 PBS buffer at a concentration of 20 μM. Three replicate teeth were used for each experimental condition. Each tooth was incubated with peptide solution for 30 min or buffer alone as a control. The enamel blocks were removed from the peptide solution and rinsed with PBS buffer. The enamel blocks were then incubated in the 1% solution of silica-coated TiO2 for 30 min. The enamel blocks were removed, rinsed with 10 mM phosphate buffer and blotted dry. Each substrate was measured for color (L, a*, b*, C*, h) values. The total color difference, Delta E*ab and the Metric Hue Difference, Delta H*ab, for the whitening process were calculated using equations (1) and (2) below: Delta E*ab=((L*1−L*2)^2+(a*1−a*2)^2+(b*1−b*2)^2)^1/2 (1) Delta H*ab=(2(C*1C*2−a*1a*2−b*1b*2))^1/2 (2) where L*=the lightness variable, a* and b* are the chromaticity coordinates and C* is the chroma of CIELAB colorspace as defined by the International Commission of Illumination (CIE) and described in ASTM D2244-09b and subscript 1 denotes the initial color value and subscript 2 denotes the final color value.

[5] = Peptide-mediated deposition of Co-NTA beads on bovine enamel, SEM; format: binding; conditions: 20 μM peptide, then Co-NTA TALON beads; SEM at 5000X
Description: Bovine enamel incisors were obtained from SE Dental (Baton Rouge, La.). Teeth were sectioned and cut into enamel slabs approx. 5 mm on each side using a DREMEL® rotary (Robert Bosch LLC, Farmington Hills, Mich.) saw with a diamond blade. The enamel slabs were cleaned and embedded in a well plate contained molding material so as to only expose the enamel surface in the well.
Polystyrene beads with cobalt-NTA coating (DYNABEADS® TALON®) were obtained from Invitrogen (item#101.02D) as a slurry of 40 mg/mL. The slurry (50 μL; 2 mg beads) was resuspended and washed with 700 μL of binding buffer (50 mM sodium phosphate, pH 8.0, 300 mM NaCI, 0.01% TWEEN® 20) in preparation for His6 binding.
Peptides were dissolved in phosphate buffered saline (Pierce, pH 7.2) at a concentration of 20 μM. Peptide solution (500 μL) was placed in each well containing an enamel slab. Enamel slabs exposed to only PBS in this step were used as a control. Samples were incubated with peptide solution with gentle agitation for 30 min. The peptide solution and PBS were removed from the well plate and each well was rinsed 3 times with repeated additions of PBS. TALON® beads (50 μL) were added to each well and incubated with gentle agitation for 30 min. The TALON® solution was removed and the samples were washed three times with the same binding buffer.
Each enamel sample was removed from the well plate and rinsed again with buffer. […] The enamel slabs were further examined by Electron Microscopy (Hitachi TM-1000 Tabletop SEM Microscope) at 1000×, 2500× and 5000× magnification. […] Little to no beads were found on the no peptide control. […]

O.D.450 [1]: 0.641
Molecule: EPPTRTRVNNHTVTVQAQQH (Synthetic oral-surface binding peptide) [BoEn P2]

O.D.450 [1]: 0.665
Molecule: GYCLRGDEPAVCSG (Synthetic oral-surface binding peptide) [BoEn P3]

O.D.450 [1]: 0.797
Molecule: NFCETQLDLSVCTV (Synthetic oral-surface binding peptide) [BoEn P5]

O.D.450 [1]: 0.83
Molecule: NTCQPTKNATPCSA (Synthetic oral-surface binding peptide) [BoEn P6]

Molecule: SSRPHKNENIMQYNVNDRWHITPAK(Biotin) [DenP32-A]
EC50 (Pellicle Surface): 25 µM
O.D.450 (normalized) [2]: 1.135

Molecule: SSRPTTYHYKNIYQESYQQRNPAVK(Biotin) [DenP3-A]
EC50 (Pellicle Surface): 28 µM
O.D.450 (normalized) [2]: 1.000

O.D.450 [1]: 2.02
Molecule: THNMSHFPPSGHPKRTAT (Synthetic oral-surface binding peptide) [BoEn P8]

Molecule: TTYHYKNIYQESYQQRNPAVHHHHHH [DenP03-D]
Particles per μm^2 at 10000X [3]: 0.23 Particles per μm^2

Molecule: TTYHYKNIYQESYQQRNPAVK(Biotin) [DenP03-C]
Particles per μm^2 at 10000X [3]: 1.75 Particles per μm^2

B1: PSSRPTTYHYKNIYQESYQQRNPAVGPEEAAKKEEAAKKPASSRPTTYHYKNIYQESYQQRNPAVGSSGPGSSKQPNKQPNKQPNKQPNKQPNKQPNKQPNKQPNKQPNGPHHHHHH (peptide)
chain: PSSRPTTYHYKNIYQESYQQRNPAVGPEEAAKKEEAAKKPASSRPTTYHYKNIYQESYQQRNPAVGSSGPGSSKQPNKQPNKQPNKQPNKQPNKQPNKQPNKQPNKQPNGPHHHHHH
Delta E*ab Avg [4]: 10.70
Delta H*ab Avg [4]: 2.93

B2: PSSSRPTTYHYKNIYQESYQQRNPAVGPEEAAKKEEAAKKPASSRPTTYHYKNIYQESYQQRNPAVGPHHHHHH (peptide)
chain: PSSSRPTTYHYKNIYQESYQQRNPAVGPEEAAKKEEAAKKPASSRPTTYHYKNIYQESYQQRNPAVGPHHHHHH
Delta E*ab Avg [4]: 6.78
Delta H*ab Avg [4]: 1.60

B3: PGSGGGGSPYSETPNDQKPNPHYKVSGTKGGGYSETPNDQKPNPHYKVSGTKGGGYSETPNDQKPNPHYKVSGTKGPGGHHHHHH (peptide)
chain: PGSGGGGSPYSETPNDQKPNPHYKVSGTKGGGYSETPNDQKPNPHYKVSGTKGGGYSETPNDQKPNPHYKVSGTKGPGGHHHHHH
modifications: Synthetic peptide composition
Particles per um^2 at 5000X [5]: 0.44 Particles per um^2

Source: patent US8354381B2, “Peptide compositions for oral care systems” (E I du Pont de Nemours and Company, priority 2009, dated 2013)
